Data reported in PubChem BioAssay AID248 (DTP/NCI, 2004).
Values joined by “and” are separate entries in the source; they are usually repeats but may differ in a detail not shown here. Identical values can stand only once. Inconclusive results and toxic doses are left out.

Test system: L1210 leukemia ip in BDF1 mice, survival T/C
Experiment: NCI In Vivo Anticancer Drug Screen. Data for tumor model L1210 Leukemia (intraperitoneal) in B6D2F1 (BDF1) mice
Conditions: endpoint: mean survival time, higher = longer survival
Method in brief: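 Mice bearing the transplanted tumor received compound or vehicle. Survival of the treated group was divided by that of the vehicle-treated control group to give the ratio.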

[1] = dose: 100.0 mg/kg/injection, schedule: Q04DX003 (ip), vehicle: Klucel (hydroxypropylcellulose) (HPC)
[2] = dose: 200.0 mg/kg/injection, schedule: Q04DX003 (ip), vehicle: Klucel (hydroxypropylcellulose) (HPC)
[3] = dose: 400.0 mg/kg/injection, schedule: Q04DX003 (ip), vehicle: Klucel (hydroxypropylcellulose) (HPC)
[4] = dose: 100.0 mg/kg/injection, schedule: Q04DX003 (ip), vehicle: saline with Tween-80
[5] = dose: 200.0 mg/kg/injection, schedule: Q04DX003 (ip), vehicle: saline with Tween-80
[6] = dose: 400.0 mg/kg/injection, schedule: Q04DX003 (ip), vehicle: saline with Tween-80
[7] = dose: 100.0 mg/kg/injection, schedule: Q01DX009 (ip), vehicle: saline with Tween-80
[8] = dose: 200.0 mg/kg/injection, schedule: Q01DX009 (ip), vehicle: saline with Tween-80
[9] = dose: 400.0 mg/kg/injection, schedule: Q01DX009 (ip), vehicle: saline with Tween-80
[10] = dose: 100.0 mg/kg/injection, schedule: Q01DX001 (ip), vehicle: carboxymethylcellulose (CMC)
[11] = dose: 200.0 mg/kg/injection, schedule: Q01DX001 (ip), vehicle: carboxymethylcellulose (CMC)
[12] = dose: 50.0 mg/kg/injection, schedule: Q04DX002 (ip), vehicle: Klucel (hydroxypropylcellulose) (HPC)
[13] = dose: 100.0 mg/kg/injection, schedule: Q04DX002 (ip), vehicle: Klucel (hydroxypropylcellulose) (HPC)
[14] = dose: 200.0 mg/kg/injection, schedule: Q04DX002 (ip), vehicle: Klucel (hydroxypropylcellulose) (HPC)
[15] = dose: 100.0 mg/kg/injection, schedule: Q04DX003 (ip), vehicle: saline
[16] = dose: 200.0 mg/kg/injection, schedule: Q04DX003 (ip), vehicle: saline
[17] = dose: 400.0 mg/kg/injection, schedule: Q04DX003 (ip), vehicle: saline

CC(C)(C)C(=O)CSC/C(=N/O)C(C)(C)C was tested, and the T/C [1] was 112 % of control, the T/C [2] was 103 % of control and the T/C [3] was 99 % of control.
O=C(Cc1ccccn1)c1ccccc1 was tested, and the T/C [1] was 96 % of control, the T/C [2] was 96 % of control and the T/C [3] was 92 % of control.
With Cc1cc(S(=O)(=O)O)c(N)cc1Cl the T/C [4] was 99 % of control, the T/C [5] was 97 % of control and the T/C [6] was 100 % of control.
For O=S(NOCCCCONS(=O)c1ccccc1)c1ccccc1 (stereo unspecified), the T/C (dose: 25.0 mg/kg/injection, schedule: Q01DX001 (ip), vehicle: saline with Tween-80) was 100 % of control, the T/C (dose: 25.0 mg/kg/injection, schedule: Q04DX003 (ip), vehicle: saline with Tween-80) was 93 % of control and the T/C (dose: 50.0 mg/kg/injection, schedule: Q01DX001 (ip), vehicle: saline with Tween-80) was 95 % of control. The T/C (dose: 50.0 mg/kg/injection, schedule: Q01DX009 (ip), vehicle: saline with Tween-80) was 94 % of control and 102 % of control, the T/C (dose: 50.0 mg/kg/injection, schedule: Q04DX003 (ip), vehicle: saline with Tween-80) was 96 % of control and the T/C (dose: 100.0 mg/kg/injection, schedule: Q01DX001 (ip), vehicle: saline with Tween-80) was 95 % of control and 90 % of control. The T/C [7] was 95 % of control and 96 % of control, the T/C (dose: 100.0 mg/kg/injection, schedule: Q04DX002 (ip), vehicle: saline with Tween-80) was 98 % of control and 89 % of control and the T/C [4] was 89 % of control. The T/C (dose: 200.0 mg/kg/injection, schedule: Q01DX001 (ip), vehicle: saline with Tween-80) was 90 % of control, the T/C [8] was 96 % of control and 92 % of control and the T/C (dose: 200.0 mg/kg/injection, schedule: Q04DX002 (ip), vehicle: saline with Tween-80) was 100 % of control and 91 % of control. The T/C [5] was 94 % of control, the T/C [9] was 90 % of control and the T/C (dose: 400.0 mg/kg/injection, schedule: Q04DX002 (ip), vehicle: saline with Tween-80) was 102 % of control.
With CN1CCCCC(=N\O)/C(=N/O)CCCC1 the T/C (dose: 50.0 mg/kg/injection, schedule: Q01DX001 (ip), vehicle: carboxymethylcellulose (CMC)) was 89 % of control, the T/C [10] was 89 % of control and the T/C [11] was 104 % of control.
For OC/C=C/c1cccs1, the T/C (dose: 100.0 mg/kg/injection, schedule: Q04DX002 (ip), vehicle: saline) was 98 % of control and the T/C (dose: 200.0 mg/kg/injection, schedule: Q04DX002 (ip), vehicle: saline) was 95 % of control.
CC[CH2][Pb]([CH2]CC)([CH2]CC)[O]C(=O)C(Cl)(Cl)Cl was tested, and the T/C (dose: 3.12 mg/kg/injection, schedule: Q01DX009 (ip), vehicle: Klucel (hydroxypropylcellulose) (HPC)) was 108 % of control, the T/C (dose: 3.12 mg/kg/injection, schedule: Q04DX002 (ip), vehicle: Klucel (hydroxypropylcellulose) (HPC)) was 105 % of control and the T/C (dose: 6.25 mg/kg/injection, schedule: Q01DX009 (ip), vehicle: Klucel (hydroxypropylcellulose) (HPC)) was 93 % of control. The T/C (dose: 6.25 mg/kg/injection, schedule: Q04DX002 (ip), vehicle: Klucel (hydroxypropylcellulose) (HPC)) was 93 % of control, the T/C (dose: 12.5 mg/kg/injection, schedule: Q01DX009 (ip), vehicle: Klucel (hydroxypropylcellulose) (HPC)) was 101 % of control and the T/C (dose: 12.5 mg/kg/injection, schedule: Q04DX002 (ip), vehicle: Klucel (hydroxypropylcellulose) (HPC)) was 97 % of control and 99 % of control.
For CC(=O)NC1CCc2ccccc21 (stereo unspecified), the T/C [12] was 102 % of control, the T/C [13] was 105 % of control and the T/C [14] was 118 % of control.
In the case of Nc1nc(N)nc(N)n1, the T/C [12] is reported as 94 % of control, the T/C (dose: 100.0 mg/kg/injection, schedule: Q01DX009 (ip), vehicle: Klucel (hydroxypropylcellulose) (HPC)) is reported as 92 % of control and 113 % of control and the T/C [13] is reported as 94 % of control. For the same molecule, the T/C (dose: 200.0 mg/kg/injection, schedule: Q01DX009 (ip), vehicle: Klucel (hydroxypropylcellulose) (HPC)) was 92 % of control and 99 % of control, the T/C [14] was 94 % of control and 105 % of control and the T/C (dose: 400.0 mg/kg/injection, schedule: Q01DX009 (ip), vehicle: Klucel (hydroxypropylcellulose) (HPC)) was 95 % of control and 99 % of control. For the same molecule, the T/C (dose: 400.0 mg/kg/injection, schedule: Q04DX002 (ip), vehicle: Klucel (hydroxypropylcellulose) (HPC)) was 102 % of control, the T/C (dose: 800.0 mg/kg/injection, schedule: Q01DX009 (ip), vehicle: Klucel (hydroxypropylcellulose) (HPC)) was 96 % of control and the T/C (dose: 1000.0 mg/kg/injection, schedule: Q01DX009 (ip), vehicle: Klucel (hydroxypropylcellulose) (HPC)) was 103 % of control.
In the case of CN(NC(=O)c1ccccc1)c1ccccc1, the T/C [4] is reported as 96 % of control, the T/C [5] is reported as 107 % of control and the T/C [6] is reported as 105 % of control.
With O=C(O)Cn1c(C(F)(F)F)nc2nc(Cl)c(Cl)nc21 the T/C [7] was 89 % of control, the T/C [4] was 94 % of control and the T/C [8] was 100 % of control. The T/C [5] was 94 % of control, the T/C [9] was 92 % of control and the T/C [6] was 97 % of control.
With O=C1c2ccccc2C(=O)C1c1ccccc1 the T/C [1] was 102 % of control, the T/C [2] was 104 % of control and the T/C [3] was 106 % of control.
In the case of Cc1ccc(N=C(N)NC#N)cc1C, the T/C [4] is reported as 102 % of control, the T/C [5] is reported as 102 % of control and the T/C [6] is reported as 102 % of control.
In the case of O=C1C2C(c3cc4ccccc4n31)N2c1ccccc1 (stereo unspecified), the T/C (dose: 0.75 mg/kg/injection, schedule: Q01DX001 (ip), vehicle: water) is reported as 103 % of control, the T/C (dose: 1.5 mg/kg/injection, schedule: Q01DX001 (ip), vehicle: water) is reported as 103 % of control and the T/C (dose: 3.0 mg/kg/injection, schedule: Q01DX001 (ip), vehicle: water) is reported as 100 % of control. The T/C (dose: 6.0 mg/kg/injection, schedule: Q01DX001 (ip), vehicle: water) was 106 % of control, the T/C (dose: 12.0 mg/kg/injection, schedule: Q01DX001 (ip), vehicle: water) was 91 % of control and the T/C (dose: 24.0 mg/kg/injection, schedule: Q01DX001 (ip), vehicle: water) was 106 % of control.
For CN=C(NCCCOC)c1ccc(NC(=O)c2ccc(C(=O)Nc3ccc(C(=NC)NCCCOC)cc3)cc2)cc1, the T/C (dose: 4.4 mg/kg/injection, schedule: Q01DX Z (ip), vehicle: carboxymethylcellulose (CMC)) was 124 % of control, the T/C (dose: 4.4 mg/kg/injection, schedule: Q01DX Z (ip), vehicle: saline) was 108 % of control and the T/C (dose: 6.6 mg/kg/injection, schedule: Q01DX Z (ip), vehicle: saline) was 108 % of control. For the same molecule, the T/C (dose: 10.0 mg/kg/injection, schedule: Q01DX Z (ip), vehicle: carboxymethylcellulose (CMC)) was 156 % of control, the T/C (dose: 15.0 mg/kg/injection, schedule: Q01DX Z (ip), vehicle: carboxymethylcellulose (CMC)) was 179 % of control and the T/C (dose: 15.0 mg/kg/injection, schedule: Q01DX Z (ip), vehicle: saline) was 155 % of control and 172 % of control. The T/C (dose: 30.0 mg/kg/injection, schedule: Q01DX Z (oral), vehicle: saline) was 101 % of control, the T/C (dose: 60.0 mg/kg/injection, schedule: Q01DX Z (oral), vehicle: saline) was 91 % of control and the T/C (dose: 120.0 mg/kg/injection, schedule: Q01DX Z (oral), vehicle: saline) was 93 % of control. The T/C (dose: 240.0 mg/kg/injection, schedule: Q01DX Z (oral), vehicle: saline) was 87 % of control and the T/C (dose: 480.0 mg/kg/injection, schedule: Q01DX Z (oral), vehicle: saline) was 91 % of control.
CCCCCCCCCCCCCCCc1ccc2c3c(cccc13)C=C2 was tested, and the T/C [10] was 92 % of control, the T/C [11] was 92 % of control and the T/C (dose: 400.0 mg/kg/injection, schedule: Q01DX001 (ip), vehicle: carboxymethylcellulose (CMC)) was 90 % of control.
With [N-]=[N+]=Nc1ccc2c(=O)c3ccccc3[nH]c2c1 the T/C (dose: 100.0 mg/kg/injection, schedule: Q04DX003 (ip), vehicle: acetone) was 89 % of control, the T/C (dose: 200.0 mg/kg/injection, schedule: Q04DX003 (ip), vehicle: acetone) was 98 % of control and the T/C (dose: 400.0 mg/kg/injection, schedule: Q04DX003 (ip), vehicle: acetone) was 96 % of control.
For COc1ccc2ccc(=O)oc2c1CC=C(C)C, the T/C (dose: 100.0 mg/kg/injection, schedule: Q01DX001 (ip), vehicle: other) was 98 % of control, the T/C (dose: 200.0 mg/kg/injection, schedule: Q01DX001 (ip), vehicle: other) was 93 % of control and the T/C (dose: 400.0 mg/kg/injection, schedule: Q01DX001 (ip), vehicle: other) was 101 % of control.
CCCCP(=S)(N1CCCCC1)N1CCCCC1 was tested, and the T/C [15] was 95 % of control, the T/C [16] was 97 % of control and the T/C [17] was 86 % of control.
CN=C(N)N(C)/N=C/c1ccccc1 was tested, and the T/C (dose: 87.5 mg/kg/injection, schedule: Q04DX003 (ip), vehicle: Klucel (hydroxypropylcellulose) (HPC)) was 105 % of control.
CN(C)CCN1C(=O)NC(C)(C)C1=O was tested, and the T/C (dose: 50.0 mg/kg/injection, schedule: Q04DX003 (ip), vehicle: saline) was 96 % of control, the T/C [15] was 101 % of control and the T/C [16] was 90 % of control. The T/C [17] was 93 % of control.
